Read-outs that look alike come from different tables or passages of the source.
Tests used:
[1] = molecular target: T1, IRAK4 (Homo sapiens, UniProt Q9NWZ3); experiment: Degradation of IRAK4 in monocytes of human PBMCs (flow cytometry); type: cell-based; design: endogenous in cells; details: human PBMC monocytes, 24 hours incubation
T1 sequence (Q9NWZ3 1-460): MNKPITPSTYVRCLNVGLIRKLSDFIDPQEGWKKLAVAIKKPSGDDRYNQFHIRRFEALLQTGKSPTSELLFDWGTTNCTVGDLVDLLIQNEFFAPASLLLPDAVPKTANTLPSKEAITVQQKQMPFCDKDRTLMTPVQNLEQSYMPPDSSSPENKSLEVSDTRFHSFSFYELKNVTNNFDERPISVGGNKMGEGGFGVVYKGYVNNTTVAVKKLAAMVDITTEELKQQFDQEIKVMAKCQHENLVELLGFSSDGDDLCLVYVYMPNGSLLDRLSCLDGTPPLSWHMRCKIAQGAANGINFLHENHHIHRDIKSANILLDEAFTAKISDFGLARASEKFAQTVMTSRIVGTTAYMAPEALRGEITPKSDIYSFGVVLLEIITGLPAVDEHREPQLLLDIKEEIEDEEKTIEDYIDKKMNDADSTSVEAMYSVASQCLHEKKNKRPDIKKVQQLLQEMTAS
Experimental: The degradation level of IRAK4 in monocytes of human peripheral blood mononuclear cells (hPBMCs) was detected by flow cytometry.
On day 1, the cells were seeded at a density of 2 × 10^5 cells per well in 100 µL in a 96-well plate.
(§1) The compounds were dissolved in DMSO to a final concentration of 10 mM, and then diluted with culture medium at a 1:5 concentration gradient to prepare 10 concentrations. The diluted solutions were added to the cells to obtain a maximum final concentration of 2 µM. Wells containing cells treated with 0.1% DMSO served as the positive control
The cells were incubated at 37°C in a 5% CO2 incubator for 24 hours.
(§2) The cells were stained for viability discrimination using the LIVE/DEAD™ Fixable Blue Dead Cell Stain Kit, and surface staining of monocytes was performed with PE Mouse Anti-Human CD14, followed by incubation at 4°C for 30 minutes.
Fix buffer I, equal in volume to the cultured cells, was added, and the cells were fixed at 37°C for 10 minutes.
150 µL of Perm III reagent was added, and the cells were incubated at 4°C for 30 minutes to permeabilize the membranes.
(§3) Flow cytometry analysis was performed using a flow cytometer.
The flow cytometry data were analyzed using Flowjo software. Data presentation and DC50 calculation were performed using Prism 8.0.2 (GraphPad).

[2] = molecular target: T1, IRAK4; experiment: Degradation of IRAK4 in SU-DHL-2 cells (flow cytometry); type: cell-based; design: The degradation level of IRAK4 protein in SU-DHL-2 cell line by the compounds was detected by flow cytometry; endogenous in cells; host or cells: SU-DHL-2; OCI-LY3; details: SU-DHL-2 cells, 24 hours incubation; read-out: SU-DHL-2 DC50
Experimental: The degradation level of IRAK4 protein in SU-DHL-2 cell line by the compounds was detected by flow cytometry.
as §1, with “Step 2: On day 1, the cells were seeded at a density of 2 × 10^5 cells per well in 100 µL in a 96-well plate. The compounds” for “The compounds”, “[…] The cells were incubated at 37°C in a 5% CO2 incubator for 24 hours.” for “positive control”
as §2, with “Step 3: After centrifugation, the cells were washed with FACS buffer. The” for “The”
Step 4: After centrifugation, the cells were washed with FACS buffer. Fix buffer I, equal in volume to the cultured cells, was added, and the cells were fixed at 37°C for 10 minutes.
Step 5: After centrifugation, the cells were washed with FACS buffer. 150 µL of Perm III reagent was added, and the cells were incubated at 4°C for 30 minutes to permeabilize the membranes. After centrifugation, the cells were washed with FACS buffer.
as §3
The flow cytometry data were analyzed using Flowjo software. Data presentation and DC50 (half-maximal degradation concentration) calculation were performed using Prism 8.0.2 (GraphPad).

[3] = tested on: TNFα secretion; experiment: Inhibition of induced TNFα secretion in human PBMCs (CBA); type: cell-based; details: PBMC
Experimental: (§4) The effect of PROTAC small molecules on inflammatory factors in PBMCs downstream of IRAK4 induced by TLR and IL-1 was detected based on the CBA (cytometric bead array) method.
(§5) Step 2: The density of PBMCs was adjusted to 1 E6/mL, and 150 µL of PBMCs in 1640 complete medium were seeded into a 96-well plate, followed by incubation at 37°C for 1 hour.
(§6) Step 3: 50 µL of serially diluted small molecule (working concentration: 10000 nM, 1:3 dilution) drugs were inoculated into the plate in a 37°C incubator for 8 hours.
(§7) Step 4: 10 µL of stimulants were added respectively, with final concentrations of 100 ng/mL for LPS, 1 µg/mL for R848, and 100 ng/mL for IL-1β.
(§8) Step 5: CBA assay. The concentrations of IL-6 and TNF-α in the cell culture supernatant were determined using Hu IL-6 CBA Flex Set A7 and Hu TNF- CBA Flex Set D9.
(§9) Step 6: Standard samples were prepared: 2500 pg/mL, 1250 pg/mL,...0. A 1:2 serial dilution was performed to obtain 10 concentrations.
(§10) Step 7: The mixed capture beads were resuspended in capture bead diluent (1:50), and cell culture supernatant (50 µL) was added, followed by incubation at room temperature for 10 minutes.
(§11) Step 8: The detection reagent prepared with detection diluent was added, and the mixture was incubated in the dark at room temperature for 3 hours. At the end of incubation, the samples were washed once with wash buffer and resuspended for detection.
(§12) The concentrations of IL-6 and TNFα were calculated using the standard curve method. Data presentation and IC50 calculation were performed using Prism 8.0.2.

[4] = tested on: IL-6 secretion; experiment: Inhibition of induced IL-6 secretion in human PBMCs (CBA); type: cell-based; details: PBMC
Experimental: as §4, §5, §6, §7, §8, §9, §10, §11, §12

[5] = Dog pharmacokinetics, oral gavage (Experiment 3); type: in vivo; details: Beagle dogs, oral gavage 2.5 mg/kg, plasma
Experimental: Healthy Beagle dogs, male, weighing about 8-10 kg, 3 animals per group.
The animals were not fasted and had free access to water.
Venous blood (0.5-0.8 mL) was collected at 15 minutes, 30 minutes, 1 hour, 2 hours, 4 hours, 8 hours, and 24 hours after oral gavage administration, placed in K2EDTA tubes, and centrifuged at 4°C to separate plasma. The concentration of the compound in plasma was determined by liquid chromatography-tandem mass spectrometry.
The main pharmacokinetic parameters were calculated using WinNonlin. […] Table 8. Pharmacokinetic parameters of some compounds of the present disclosure administered orally to dogs

[6] = mice, 8 hours after last administration
Experimental: Experimental animals: SPF-grade male C57BL/6J mice aged 6-8 weeks.
Preparation of compound: 10% DMSO + 50% PEG400 + 40% sterile water for injection. The compound was dissolved in DMSO, followed by the addition of PEG400 and sterile water for injection, and the solution was adjusted to clarity with 6N hydrochloric acid.
Compound administration and IL-33 inflammatory induction: The mice were randomly grouped according to body weight and orally administered with the compound at final doses of 15 mg/kg, 50 mg/kg, and 150 mg/kg, twice daily. At 4 hours after the last administration of the compound, the mice were intraperitoneally injected with 1 µg/100 µL PBS of IL-33 for inflammatory induction.
Termination, sample collection, and data: Plasma, peritoneal lavage fluid, and spleen were collected for subsequent sample index detection.
The experiment was terminated 8 hours after the last administration. The mice were anesthetized, and cardiac blood was collected. The blood samples were anticoagulated with EDTA-K2, centrifuged at 3500 rpm for 15 minutes, and the upper plasma was collected.

[7] = molecular target: hERG potassium channel (Homo sapiens, UniProt Q12809); experiment: Inhibition of hERG potassium channel, whole-cell manual patch clamp in CHO-hERG cells; details: @ 1 µM test compound
Sequence of hERG potassium channel (Q12809 whole entry): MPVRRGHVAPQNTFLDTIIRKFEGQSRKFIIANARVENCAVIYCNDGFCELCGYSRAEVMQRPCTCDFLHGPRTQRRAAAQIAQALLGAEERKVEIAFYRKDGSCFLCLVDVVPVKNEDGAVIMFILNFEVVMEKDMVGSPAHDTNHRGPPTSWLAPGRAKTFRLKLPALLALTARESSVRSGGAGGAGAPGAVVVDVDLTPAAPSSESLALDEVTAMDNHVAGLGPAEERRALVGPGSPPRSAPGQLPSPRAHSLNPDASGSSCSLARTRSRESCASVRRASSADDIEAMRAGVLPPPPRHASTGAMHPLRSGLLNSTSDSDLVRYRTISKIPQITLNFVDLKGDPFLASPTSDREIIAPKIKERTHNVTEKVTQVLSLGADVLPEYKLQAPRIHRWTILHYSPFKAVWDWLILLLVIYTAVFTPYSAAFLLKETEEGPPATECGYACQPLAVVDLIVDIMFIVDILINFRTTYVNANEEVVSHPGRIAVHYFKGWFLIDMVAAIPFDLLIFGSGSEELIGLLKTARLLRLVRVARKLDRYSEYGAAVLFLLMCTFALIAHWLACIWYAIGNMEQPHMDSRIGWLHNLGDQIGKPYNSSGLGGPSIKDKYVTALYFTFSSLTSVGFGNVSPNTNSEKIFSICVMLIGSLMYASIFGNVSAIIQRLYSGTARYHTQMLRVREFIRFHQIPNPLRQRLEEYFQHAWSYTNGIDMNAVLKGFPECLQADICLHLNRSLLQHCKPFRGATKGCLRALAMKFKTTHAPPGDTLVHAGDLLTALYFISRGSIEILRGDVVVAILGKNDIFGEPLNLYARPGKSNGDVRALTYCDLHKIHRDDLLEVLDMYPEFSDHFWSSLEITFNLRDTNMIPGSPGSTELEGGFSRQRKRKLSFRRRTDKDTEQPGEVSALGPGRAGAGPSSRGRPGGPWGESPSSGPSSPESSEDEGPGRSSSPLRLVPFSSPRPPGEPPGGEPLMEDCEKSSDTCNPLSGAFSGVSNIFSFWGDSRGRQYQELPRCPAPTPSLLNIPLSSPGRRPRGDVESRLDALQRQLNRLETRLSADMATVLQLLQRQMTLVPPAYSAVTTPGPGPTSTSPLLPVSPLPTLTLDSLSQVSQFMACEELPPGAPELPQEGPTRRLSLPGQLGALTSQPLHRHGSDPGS
Experimental: The effects of compounds on hERG potassium channel (human Ether-a-go-go Related Gene potassium channel) currents were tested using the whole-cell manual voltage-clamp electrophysiological method.
CHO cells stably expressing hERG were cultured in cell culture dishes with a diameter of 35 mm and incubated at 37°C in a 5% CO2 incubator. The cells were passaged at a ratio of 1:5 every 48 hours. The culture medium was formulated as follows: 90% F12 (Invitrogen), 10% fetal bovine serum (Gibco), 100 g/mL G418 (Invitrogen), and 100 g/mL Hygromycin B (Invitrogen). On the day of the experiment, the cell culture medium was aspirated, and the cells were rinsed once with extracellular solution. […] The digestion solution was aspirated, and the cells were resuspended in extracellular solution and then transferred to experimental dishes for electrophysiological recording for later use.
On the day of testing, the compounds were prepared as 10 mM stock solutions in DMSO, then diluted to 1 mM with DMSO, and further diluted 1000-fold with extracellular solution to obtain the desired final test concentration.
hERG potassium channel currents were recorded at room temperature using the whole-cell patch-clamp technique in CHO cells stably expressing the hERG channel. The glass microelectrode was prepared by pulling the glass electrode blank (BF150-86-10, Sutter) with a puller, and the tip resistance after filling with the internal electrode solution was about 2-5 MΩ. The glass microelectrode was inserted into the amplifier probe and then connected to the patch-clamp amplifier. The clamping voltage and data recording were controlled and recorded by pClamp software via a computer, with a sampling frequency of 10 kHz and a filtering frequency of 2 kHz. After obtaining the whole-cell recording, cells were clamped at -100 mV. The hERG potassium current (IhERG) was evoked by applying a 2 s depolarizing voltage step from -100 mV to +20 mV, followed by repolarization to -50 mV for 1 s before returning to -100 mV. […]
Data were analyzed and processed using pClamp, GraphPad Prism 8 and Excel software. […]

Structure (SMILES) | DC50 [1] [nM] | DC50 [2] [nM] | IC50 ([3]; IL-1β 100 ng/mL, read-out: IC50, TNFα secretion induced by IL-1β) [nM] | IC50 ([3]; LPS 100 ng/mL, read-out: IC50, TNFα secretion induced by LPS) [nM] | IC50 ([3]; R848 1 µg/mL, read-out: IC50, TNFα secretion induced by R848) [nM] | IC50 ([4]; IL-1β 100 ng/mL, read-out: IC50 of compounds against induced secretion, IL-6, IL-1β) [nM] | IC50 ([4]; LPS 100 ng/mL, read-out: IC50 of compounds against induced secretion, IL-6, LPS) [nM] | IC50 ([4]; R848 1 µg/mL, read-out: IC50 of compounds against induced secretion, IL-6, R848) [nM] | AUC(0-t) at 24 h [5] [ng·h/mL] | Cmax [5] [ng/mL] | MRT inf [5] [h] | half-life [5] [h] | C8hr Plasma ([6]; PO 15 mpk twice daily) [ng/mL] | C8hr Spleen ([6]; PO 15 mpk twice daily) [ng/mL] | C8hr Plasma ([6]; PO 50 mpk twice daily) [ng/mL] | C8hr Spleen ([6]; PO 50 mpk twice daily) [ng/mL] | C8hr Plasma ([6]; PO 150 mpk twice daily) [ng/mL] | C8hr Spleen ([6]; PO 150 mpk twice daily) [ng/mL] | hERG (inhibition%) [7] [% @ 1 µM]
Cn1c(=O)n(C2CCC(=O)NC2=O)c2cccc(C#CC(C)(C)N3CCC(C(=O)N4CCC5(CC4)CC(n4cc(NC(=O)c6cnn7ccc(N8C[C@H]9C[C@@H]8CO9)nc67)c(C(F)F)n4)C5)CC3)c21 (stereo partly shown) [Example 56] | 1.1 | 5 | – | – | – | – | – | – | – | – | – | – | – | – | – | – | – | – | –
Cn1c(=O)n(C2CCC(=O)NC2=O)c2cccc(C#CCOC3CCN(C[C@H]4CC[C@H](n5cc(NC(=O)c6cnn7ccc(N8C[C@H]9C[C@@H]8CO9)nc67)c(C(F)F)n5)CC4)CC3)c21 (stereo partly shown) [KT-474, reference compound] | – | – | 13 | 31 | 52 | 18 | 41 | 14 | 380 | 31 | 10.3 | 6.7 | 100 | 896 | 262 | 1740 | 578 | 7262 | 47

— patent EP4656640A1, “IRAK4 DEGRADER AND USE THEREOF” (Shanghai Qilu Pharmaceutical Research and Development …, priority 2023, dated 2024)
